In US20240156790A1, “COMPOUNDS, COMPOSITIONS, AND METHODS FOR MODULATING FERROPTOSIS AND TREATING EXCITOTOXIC DISORDERS” (THE TRUSTEES OF COLUMBIA UNIVERSITY IN THE CITY OF NEW YORK, priority 2018, published 2024):
“Also recorded” adds a separate entry of the source. Like-named read-outs stand apart in the source and are kept apart here.

Tests used:
[1] = Microsomal Stability Assay (Examples 6 and 8); assay type: in vitro ADME, mouse; settings: for half-life at 20 µM: CD-1, mouse, liver microsomes; for microsomal stability / half-life, in words: assessed over two hours
Experimental: (§1) To a 96-well polypropylene plate was added phosphate buffer (182.2 μL, pH 7.4, 100 mM) followed by addition of NADPH-regenerating system solution A (10 μL), and NADPH regenerating system solution B (2 μL) (Corning Gentest 3P NADPH regenerating system solution A (#451220) and B (#451200)). A stock solution of analog (0.8 μL. 5 mM) or fer-1 (positive control) was added and the mixture was warmed to 37° C. for 5 min. Mouse microsomes (CD-1, 20 mg/mL, Life Technologies) (5 μL, thawed in 37° C. water bath before use) were added. The resulting reaction mixture was kept at 37° C. with gentle agitation for the duration of the experiment. At selected time points (0, 1, 5, 10, 20, 30, 60 and 120 min) aliquots (15 μL) were withdrawn from the plate and quenched upon addition to cold methanol (60 μL), containing an internal standard (5 μM) in a separate 96-well polypropylene plate. At the completion of the final time-point, the samples were centrifuged at 4,000 rpm for 5 min at 4° C. The supernatant (40 μL) was withdrawn and transferred to a sample vial with insert. The samples were analyzed by LC-MS. LC-MS analysis was performed on a platform comprising a Thermo Scientific Dionex Ultimate 3000 and a Bruker amaZon SL equipped with an electrospray ionization source controlled by Bruker Hystar 3.2. Chromatographic separation was performed by injecting 5 μL of the sample onto an Agilent Eclipse Plus C18 column (2.1×50 mm, 3.5 μm) maintained at 20° C. The flow rate was maintained at 400 μL/min. The initial flow conditions were 80% solvent A (water containing 0.1% acetic acid) and 20% solvent B (methanol containing 0.1% acetic acid). Solvent B was raised to 80% over 0.50 min by 1.50 min. Solvent B was raised to 100% by 5.00 min and held there for 3.25 min. […] All analogs were detected in positive mode as [M+H]*. The percent of compound remaining at each time-point was calculated as the ratio of the integrated compound peak over the internal standard peak and standardized to the t=0 time-point. Values were plotted in GraphPad Prism 9 and fit with a one phase decay.
as §1, with “and NADPH-regenerating” for “and NADPH regenerating”, “rpm (1872 g)” for “rpm”, “[M+H]*. […]” for “[M+H]*. The percent of compound remaining at each time-point was calculated as the ratio of the integrated compound peak over the internal standard peak and standardized to the t=0 time-point. Values were plotted in GraphPad Prism 9 and fit with a one phase decay.”

[2] = Solubility in the in vivo injection vehicle; assay type: physicochemical; settings: solution prepared for in vivo injection, no precipitation observed
Experimental: To achieve the 20 mg/kg dose for each compound, mice were injected with a 2 mg/mL solution in the vehicle described above.

[3] = pH 7.4, independent test I, read-out: t1/2 I
[4] = pH 7.4, independent test II, read-out: t1/2 II
[5] = pH 7.4, independent test III, read-out: t1/2 III
[6] = pH 7.4, text, read-out: half-life in mouse liver microsomes

Row | SMILES | half-life at 20 µM [1, 3] [h] | half-life at 20 µM [1, 4] [h] | half-life at 20 µM [1, 5] [h] | half-life at 20 µM [1, 6] [h] | microsomal stability / half-life, in words [1] | Concentration (mM) [2] [mM] | Concentration (mg/mL) [2] [mg/mL]
1 | Cc1noc(-c2cnc(NC3CCCCC3)c(NC3CCCCC3)c2)n1 [TH-2-31, N^2,N^3-dicyclohexyl-5-(3-methyl-1,2,4-oxadiazol-5-yl)pyridine-2,3-diamine] | > 2 | > 2 | > 2 | 0.5 to 1 | the most stable; also recorded: half-life greater than two hours | 5.6 | 2
2 | CCOC(=O)c1ccc(NC2CCCCC2)c(N)c1 [Fer-1, Ferrostatin-1, reference compound] |  |  |  | 0.04 |  |  | 
3 | Cc1noc(-c2cnc(NC3CCCC3)c(NC3CCCC3)c2)n1 [TH-4-67, N^2,N^3-dicyclopentyl-5-(3-methyl-1,2,4-oxadiazol-5-yl)pyridine-2,3-diamine] | > 2 | > 2 | > 2 | > 1 | half-life greater than two hours | 6.1 | 2
4 | Cc1noc(-c2ccc(NC3CCCCC3)c(NC3CCCCC3)c2)n1 [PHB4082, N1,N2-dicyclohexyl-4-(3-methyl-1,2,4-oxadiazol-5-yl)benzene-1,2-diamine] |  |  |  |  | half-lives greater than two hours |  | 
5 | CCC(CC)Nc1cc(-c2nc(C)no2)cnc1NC1CCCCC1 [TH-4-55-2, N^2-cyclohexyl-5-(3-methyl-1,2,4-oxadiazol-5-yl)-N^3-(pentan-3-yl)pyridine-2,3-diamine] | > 2 | > 2 | > 2 | > 1 | half-life greater than two hours | 5.8 | 2
